Experimental data taken from patent US20240158446A1, “CYCLIC COMPOUND HAVING SELECTIVE INHIBITORY ACTION ON KRAS OVER HRAS AND NRAS” (CHUGAI SEIYAKU KABUSHIKI KAISHA, priority 2021, published 2024).
*1 amine or outer side, *2 acyl side, *3 side chain or, on linkers, in order; H or OH if unused. Where a SMILES comes first, the peptide text is derived from it. Bridges are numbered along the chain shown (N, C = ends). [ ]: non-standard residue; d: D form. The star is where a group is joined. X25 = O=C([C@H](Cc1ccc(C(F)(F)F)cc1)N(CCC(F)(F)F)[*:1])[*:2]; hPhe(3-Cl-4-CF3) = N[C@@H](CCc1ccc(C(F)(F)F)c(Cl)c1)C(=O)O; X23 = C=CCCN([C@@H](Cc1ccc(C(F)(F)F)cc1)C(=O)[*:2])[*:1]; X31 = COCCCN([C@@H](Cc1ccc(C(F)(F)F)cc1)C(=O)[*:2])[*:1]; X32 = COCCN([C@@H](Cc1ccc(C(F)(F)F)cc1)C(=O)[*:2])[*:1]; X38 = C#CCN([C@@H](Cc1ccc(C(F)(F)F)cc1)C(=O)[*:2])[*:1]; X5 = C=CCN([C@@H](Cc1ccc(C(F)(F)F)cc1)C(=O)[*:2])[*:1]; NMeGly(cPent) = CN[C@H](C(=O)O)C1CCCC1; NMeD = CN[C@@H](CC(=O)O)C(=O)O; NMeL = CN[C@@H](CC(C)C)C(=O)O; Morpholide = C1CN(*)CCO1; NMeA = CN[C@@H](C)C(=O)O; Ac5c = NC1(C(=O)O)CCCC1; Aze = O=C(O)[C@@H]1CCN1; Sar = CNCC(=O)O

Key:
[1] = target: GDP-bound NRAS wild-type protein (Homo sapiens, UniProt P01111); experiment: Binding to NRAS by surface plasmon resonance (SPR), Single Cycle Kinetics; conditions: SPR, GDP-bound NRAS wild-type protein vs GDP-bound KRAS wild-type protein
GDP-bound NRAS wild-type protein, sequence (P01111 whole entry): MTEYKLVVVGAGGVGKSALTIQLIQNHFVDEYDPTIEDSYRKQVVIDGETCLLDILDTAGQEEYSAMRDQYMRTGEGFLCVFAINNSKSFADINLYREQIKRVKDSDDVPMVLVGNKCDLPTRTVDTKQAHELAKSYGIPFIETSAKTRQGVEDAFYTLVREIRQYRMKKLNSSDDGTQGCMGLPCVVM

[2] = target: GDP-bound KRAS wild-type protein (Homo sapiens, UniProt P01116); experiment: Binding to KRAS by surface plasmon resonance (SPR), Single Cycle Kinetics; conditions: SPR Single Cycle Kinetics, GDP-bound KRAS wild-type protein, 1:1 binding model; read-out: KRAS KD
GDP-bound KRAS wild-type protein, sequence (P01116 whole entry): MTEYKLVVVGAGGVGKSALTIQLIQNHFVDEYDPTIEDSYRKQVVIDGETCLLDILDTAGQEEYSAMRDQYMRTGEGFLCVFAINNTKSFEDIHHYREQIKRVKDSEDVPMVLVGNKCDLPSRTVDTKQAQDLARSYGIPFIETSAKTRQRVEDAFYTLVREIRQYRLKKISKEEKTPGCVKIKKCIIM

[3] = target: GDP-bound HRAS wild-type protein (Homo sapiens, UniProt P01112); experiment: Binding to HRAS by surface plasmon resonance (SPR), Single Cycle Kinetics; conditions: SPR, GDP-bound HRAS wild-type protein vs GDP-bound KRAS wild-type protein
GDP-bound HRAS wild-type protein, sequence (P01112 whole entry): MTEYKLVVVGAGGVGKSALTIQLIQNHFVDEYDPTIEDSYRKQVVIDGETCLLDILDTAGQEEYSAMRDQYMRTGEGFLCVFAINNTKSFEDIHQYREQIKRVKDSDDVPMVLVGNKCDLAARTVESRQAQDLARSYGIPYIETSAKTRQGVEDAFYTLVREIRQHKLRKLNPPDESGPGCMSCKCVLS

| SMILES | NRAS/KRAS (ratio of KD value for NRAS to KD value for KRAS) [1] | Kd [2] | HRAS/KRAS (ratio of KD value for HRAS to KD value for KRAS) [3] |
| --- | --- | --- | --- |
| C=CCN1C(=O)[C@@H]2CCN2C(=O)[C@H](C)N(C)C(=O)[C@H]([C@@H](C)CC)NC(=O)[C@H](CC(C)C)N(C)C(=O)C[C@@H](C(=O)N2CCOCC2)N(C)C(=O)[C@H](C2CCCC2)N(C)C(=O)C2(CCCC2)NC(=O)[C@@H]2CCCN2C(=O)[C@H](CCc2ccc(C(F)(F)F)c(Cl)c2)NC(=O)CN(C)C(=O)[C@@H]1Cc1ccc(C(F)(F)F)cc1 [PP0114] ([NMeL]I[NMeA][Aze][X5][Sar][hPhe(3-Cl-4-CF3)]P[Ac5c][NMeGly(cPent)][NMeD]-Morpholide; lactam N-11) | C (A compound having a KD ratio of 0.1 or more and less than 3 is denoted as C) | 0.16 nM | C (A compound having a KD ratio of 0.1 or more and less than 3 is denoted as C) |
| C=CCCN1C(=O)[C@@H]2CCN2C(=O)[C@H](C)N(C)C(=O)[C@H]([C@@H](C)CC)NC(=O)[C@H](CC(C)C)N(C)C(=O)C[C@@H](C(=O)N2CCOCC2)N(C)C(=O)[C@H](C2CCCC2)N(C)C(=O)C2(CCCC2)NC(=O)[C@@H]2CCCN2C(=O)[C@H](CCc2ccc(C(F)(F)F)c(Cl)c2)NC(=O)CN(C)C(=O)[C@@H]1Cc1ccc(C(F)(F)F)cc1 [PP0115] ([NMeL]I[NMeA][Aze][X23][Sar][hPhe(3-Cl-4-CF3)]P[Ac5c][NMeGly(cPent)][NMeD]-Morpholide; lactam N-11) | C (A compound having a KD ratio of 0.1 or more and less than 3 is denoted as C) | 0.21 nM | C (A compound having a KD ratio of 0.1 or more and less than 3 is denoted as C) |
| C#CCN1C(=O)[C@@H]2CCN2C(=O)[C@H](C)N(C)C(=O)[C@H]([C@@H](C)CC)NC(=O)[C@H](CC(C)C)N(C)C(=O)C[C@@H](C(=O)N2CCOCC2)N(C)C(=O)[C@H](C2CCCC2)N(C)C(=O)C2(CCCC2)NC(=O)[C@@H]2CCCN2C(=O)[C@H](CCc2ccc(C(F)(F)F)c(Cl)c2)NC(=O)CN(C)C(=O)[C@@H]1Cc1ccc(C(F)(F)F)cc1 [PP0116] ([NMeL]I[NMeA][Aze][X38][Sar][hPhe(3-Cl-4-CF3)]P[Ac5c][NMeGly(cPent)][NMeD]-Morpholide; lactam N-11) | C (A compound having a KD ratio of 0.1 or more and less than 3 is denoted as C) | 0.27 nM | C (A compound having a KD ratio of 0.1 or more and less than 3 is denoted as C) |
| CC[C@H](C)[C@@H]1NC(=O)[C@H](CC(C)C)N(C)C(=O)C[C@@H](C(=O)N2CCOCC2)N(C)C(=O)[C@H](C2CCCC2)N(C)C(=O)C2(CCCC2)NC(=O)[C@@H]2CCCN2C(=O)[C@H](CCc2ccc(C(F)(F)F)c(Cl)c2)NC(=O)CN(C)C(=O)[C@H](Cc2ccc(C(F)(F)F)cc2)N(CCC(F)(F)F)C(=O)[C@@H]2CCN2C(=O)[C@H](C)N(C)C1=O [PP0117] ([NMeL]I[NMeA][Aze][X25][Sar][hPhe(3-Cl-4-CF3)]P[Ac5c][NMeGly(cPent)][NMeD]-Morpholide; lactam N-11) | B (a compound having 3 or more and less than 10 is denoted as B) | 0.19 nM | B (a compound having 3 or more and less than 10 is denoted as B) |
| CC[C@H](C)[C@@H]1NC(=O)[C@H](CC(C)C)N(C)C(=O)C[C@@H](C(=O)N2CCOCC2)N(C)C(=O)[C@H](C2CCCC2)N(C)C(=O)C2(CCCC2)NC(=O)[C@@H]2CCCN2C(=O)[C@H](CCc2ccc(C(F)(F)F)c(Cl)c2)NC(=O)CN(C)C(=O)[C@H](Cc2ccc(C(F)(F)F)cc2)N(CCOC)C(=O)[C@@H]2CCN2C(=O)[C@H](C)N(C)C1=O [PP0118] ([NMeL]I[NMeA][Aze][X32][Sar][hPhe(3-Cl-4-CF3)]P[Ac5c][NMeGly(cPent)][NMeD]-Morpholide; lactam N-11) | C (A compound having a KD ratio of 0.1 or more and less than 3 is denoted as C) | 0.21 nM | C (A compound having a KD ratio of 0.1 or more and less than 3 is denoted as C) |
| CC[C@H](C)[C@@H]1NC(=O)[C@H](CC(C)C)N(C)C(=O)C[C@@H](C(=O)N2CCOCC2)N(C)C(=O)[C@H](C2CCCC2)N(C)C(=O)C2(CCCC2)NC(=O)[C@@H]2CCCN2C(=O)[C@H](CCc2ccc(C(F)(F)F)c(Cl)c2)NC(=O)CN(C)C(=O)[C@H](Cc2ccc(C(F)(F)F)cc2)N(CCCOC)C(=O)[C@@H]2CCN2C(=O)[C@H](C)N(C)C1=O [PP0119] ([NMeL]I[NMeA][Aze][X31][Sar][hPhe(3-Cl-4-CF3)]P[Ac5c][NMeGly(cPent)][NMeD]-Morpholide; lactam N-11) | C (A compound having a KD ratio of 0.1 or more and less than 3 is denoted as C) | 0.1 nM | C (A compound having a KD ratio of 0.1 or more and less than 3 is denoted as C) |
